As usually defined, the IC50 is the concentration at which inhibition is half-maximal.

This passage reports IC50 results from article PMC8805605, “Discovery of Dimeric Arylsulfonamides as Potent ADAM8 Inhibitors” (ACS Medicinal Chemistry Letters, 2021).

Type in all cases: biochemical
For one assay, the target named is T1, MMP-12 (Homo sapiens, UniProt P39900).
T1 construct: purchased R&D Systems
Description: MMP-12 fluorometric inhibition assay. The conditions noted are these: mean of three independent experiments in duplicate, read-out: In vitro inhibitory activity IC50 on MMP-12. The protocol:
(§1) The newly synthesized bivalent derivatives 1–3 were then tested in vitro on human recombinant ADAM8 in comparison with JG26 by a fluorometric assay. The inhibitory activity against a panel of MMPs and ADAM10/17 was determined as well to assess their selectivity profile. […]
(§2) VI. Biological Activity on Isolated Enzymes
(§3) MMP and ADAM10 inhibition assays.
(§4) Recombinant human MMP-14 catalytic domain was a kind gift of Prof. Gillian Murphy (Department of […]
(§5) Oncology, University of Cambridge, UK). Pro-MMP-1, pro-MMP-2, and pro-MMP-9, were purchased […]
(§6) from Calbiochem (Merck-Millipore). Pro-MMP-12 and ADAM10 were purchased from R&D Systems.
(§7) Proenzymes were activated immediately prior to use with p-aminophenylmercuric acetate (APMA 2 […]
(§8) mM for 1 h at 37°C for MMP-2 and MMP-1, 1 mM for 1 h at 37°C for MMP-9). Pro-MMP-12 was […]
(§9) auto activated by incubating in the fluorometric assay buffer (FAB: Tris 50 mM, pH = 7.5, NaCl 150 […]
(§10) mM, CaCl2 10 mM, Brij 35 0.05% and DMSO 1%) for 30 h at 37°C. For assay measurements, each […]
(§11) inhibitor stock solution (DMSO, 10 mM) was further diluted in FAB at seven different concentrations.
(§12) Activated enzyme (final concentration 0.56 nM for MMP-2, 1.3 nM for MMP-9, 1.0 nM for MMP- […]
(§13) 14cd, 2.0 nM for MMP-1, 2.3 nM for MMP-12 and 20 nM for ADAM10) and inhibitor solutions were […]
(§14) incubated in the assay buffer for 3 h at 25 °C. ADAM10 was incubated for 1 h at 37°C in a different […]
(§15) was monitored every 10 sec. for 15 min. recording the increase in fluorescence (λ ex = 325 nm, λ em = […]
400 nm) using a Molecular Devices SpectraMax Gemini XPS plate reader. […]
(RFU). Percent of inhibition was calculated from control reactions without the inhibitor. IC50 was determined using the formula: v i/v o = 1/(1 + [I]/ IC50), where v i is the initial velocity of substrate cleavage in the presence of the inhibitor at concentration [I] and v o is the initial velocity in the absence of the inhibitor. Results were analyzed using SoftMax Pro software (version 5.4.3, Molecular Devices, Sunnyvale, CA) and Prism Software version 5.0 (GraphPad Software, Inc., La Jolla, CA, USA). […]

In a further assay the target is T2, MMP-1 (Homo sapiens, UniProt P03956).
T2 construct: purchased Calbiochem (Merck-Millipore)
T2 sequence (P03956 100-469): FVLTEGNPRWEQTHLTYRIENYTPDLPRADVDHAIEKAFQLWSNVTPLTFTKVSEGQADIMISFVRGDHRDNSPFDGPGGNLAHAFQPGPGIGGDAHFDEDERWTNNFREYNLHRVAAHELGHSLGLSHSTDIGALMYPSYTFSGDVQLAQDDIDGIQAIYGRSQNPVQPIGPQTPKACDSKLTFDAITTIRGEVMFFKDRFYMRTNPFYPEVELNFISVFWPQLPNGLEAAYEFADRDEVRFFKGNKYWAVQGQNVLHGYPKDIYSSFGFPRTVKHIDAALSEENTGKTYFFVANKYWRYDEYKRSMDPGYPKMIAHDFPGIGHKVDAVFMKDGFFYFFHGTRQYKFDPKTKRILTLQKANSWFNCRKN
Put plainly: MMP-1 fluorometric inhibition assay. The conditions noted are these: mean of three independent experiments in duplicate, read-out: In vitro inhibitory activity IC50 on MMP-1. The procedure: as §1, §2, §3, §4, §5, §6, §7, §8, §9, §10, §11, §12, §13, §14
(§16) buffer at pH 9 (Tris 25 mM, ZnCl2 25 µM, Brij-35 0.005 %). After the addition of 200 µM solution of […]
(§17) the fluorogenic substrate Mca-Lys-Pro-Leu-Gly-Leu-Dap(Dnp)-Ala-Arg-NH2 (Bachem) for all the […]
(§18) enzymes in DMSO (final concentration 2 µM for all enzymes, 10 µM for ADAM10), the hydrolysis […]
as §15
(§19) 400 nm) using a Molecular Devices SpectraMax Gemini XPS plate reader. The assays were performed […]
(§20) in triplicate in a total volume of 200 μL per well in 96-well microtitre plates (Corning, black, NBS).
(§21) Control wells lack inhibitor. The MMP inhibition activity was expressed in relative fluorescent units […]
(§22) (RFU). Percent of inhibition was calculated from control reactions without the inhibitor. IC50 was determined using the formula: v i/v o = 1/(1 + [I]/ IC50), where v i is the initial velocity of substrate cleavage in the presence of the inhibitor at concentration [I] and v o is the initial velocity in the absence of the inhibitor. Results were analyzed using SoftMax Pro software (version 5.4.3, Molecular Devices, Sunnyvale, CA) and Prism Software version 5.0 (GraphPad Software, Inc., La Jolla, CA, USA).
(§23) ADAM8 and ADAM17 inhibition assays […]

The target in another assay is T3, ADAM10 (Homo sapiens, UniProt O14672).
T3 construct: purchased R&D Systems
T3 sequence (O14672 214-748): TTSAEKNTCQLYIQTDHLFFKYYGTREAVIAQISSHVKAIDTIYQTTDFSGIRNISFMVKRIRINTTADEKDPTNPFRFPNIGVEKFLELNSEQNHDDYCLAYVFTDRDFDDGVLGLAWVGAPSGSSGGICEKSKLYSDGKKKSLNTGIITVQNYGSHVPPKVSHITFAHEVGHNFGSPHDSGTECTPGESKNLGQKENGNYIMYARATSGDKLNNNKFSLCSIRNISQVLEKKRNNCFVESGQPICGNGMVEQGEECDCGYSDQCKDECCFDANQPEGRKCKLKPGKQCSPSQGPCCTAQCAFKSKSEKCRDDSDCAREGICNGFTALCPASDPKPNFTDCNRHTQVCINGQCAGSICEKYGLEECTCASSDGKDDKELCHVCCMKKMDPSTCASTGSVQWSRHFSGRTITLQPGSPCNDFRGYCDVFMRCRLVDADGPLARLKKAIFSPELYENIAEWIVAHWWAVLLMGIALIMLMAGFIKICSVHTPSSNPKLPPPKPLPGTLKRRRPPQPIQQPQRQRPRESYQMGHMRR
Description: ADAM10 fluorometric inhibition assay. The conditions noted are these: mean of three independent experiments in duplicate, read-out: In vitro inhibitory activity IC50 on ADAM10. The protocol: as §1, §2, §3, §4, §5, §6, §7, §8, §9, §10, §11, §12, §13, §14, §16, §17, §18, §15, §19, §20, §21, §22, §23

T1 sequence (P39900 106-470): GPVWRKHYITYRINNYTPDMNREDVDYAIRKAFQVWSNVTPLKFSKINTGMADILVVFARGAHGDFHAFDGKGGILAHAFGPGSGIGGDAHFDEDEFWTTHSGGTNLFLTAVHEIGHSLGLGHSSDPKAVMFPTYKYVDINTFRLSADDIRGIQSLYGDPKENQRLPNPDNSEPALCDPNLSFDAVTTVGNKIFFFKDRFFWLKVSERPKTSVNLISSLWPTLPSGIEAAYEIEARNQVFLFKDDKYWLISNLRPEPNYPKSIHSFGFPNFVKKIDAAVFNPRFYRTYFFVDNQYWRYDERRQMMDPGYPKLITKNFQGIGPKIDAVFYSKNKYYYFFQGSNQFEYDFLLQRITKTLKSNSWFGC

`O=C(NCCC[C@@H](NS(=O)(=O)c1ccc(OCc2cc(Br)cc(Br)c2)cc1)C(=O)NO)c1cccc(C(=O)NCCC[C@@H](NS(=O)(=O)c2ccc(OCc3cc(Br)cc(Br)c3)cc2)C(=O)NO)c1` [Compound 2]: the IC50 at MMP-12 was 0.041 µM; on MMP-1 it was above 200 µM; at ADAM10 it was 10 µM.

For the molecule `O=C(NCCC[C@@H](NS(=O)(=O)c1ccc(OCc2cc(Br)cc(Br)c2)cc1)C(=O)NO)NCCC[C@@H](NS(=O)(=O)c1ccc(OCc2cc(Br)cc(Br)c2)cc1)C(=O)NO` [Compound 3], the IC50 worked out at 348 µM at MMP-1 and 27.4 µM on ADAM10.

On to `NC(=O)NCCC[C@@H](NS(=O)(=O)c1ccc(OCc2cc(Br)cc(Br)c2)cc1)C(=O)NO` [JG26, reference compound], for which the IC50 at MMP-12 was 0.0094 µM; on MMP-1, above 500 µM; at ADAM10, 0.15 µM.

With `O=C(CCCNC(=O)c1cccc(C(=O)NCCCC(=O)NCCC[C@@H](NS(=O)(=O)c2ccc(OCc3cc(Br)cc(Br)c3)cc2)C(=O)NO)c1)NCCC[C@@H](NS(=O)(=O)c1ccc(OCc2cc(Br)cc(Br)c2)cc1)C(=O)NO` [Compound 1], the results for the IC50 on MMP-12, on MMP-1 and at ADAM10 were 0.242 µM, 415 µM and 30.6 µM, respectively.
